From ChEMBL document CHEMBL1201862, “PubChem BioAssay data set” (2004)
Calls of active or inactive are those of the source.

Legend:
Assay type in all cases: functional
[1] = non-specific 3'UTR reporter inhibition in Clone20-Shn3RL – cell-based, Renilla luciferase, cherry-picked, counter-screen for Shn3 inhibitor project, dose response (AID 624133)
[2] = target: ALK tyrosine kinase receptor (Homo sapiens, UniProt Q9UM73);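 also: ALK tested as one member of a kinase panel screen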
[3] = target: Serine/threonine-protein kinase D3 (Homo sapiens, UniProt O94806);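 also: determined within a kinase panel screen, with PRKCN as the panel member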
[4] = target: MAP/microtubule affinity-regulating kinase 3 (Homo sapiens, UniProt P27448);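 also: MARK3 affinity measured as one member of a kinome panel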
[5] = target: Cyclin-dependent kinase 7 (Homo sapiens, UniProt P50613);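 also: value comes from a kinome-wide kinase profiling panel in which CDK7 is one member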
[6] = target: Tyrosine-protein kinase BTK (Homo sapiens, UniProt Q06187)
[7] = target: Mast/stem cell growth factor receptor Kit (Homo sapiens, UniProt P10721);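 also: KIT entry within a kinase panel assay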
[8] = target: Mitogen-activated protein kinase kinase kinase kinase 4 (Homo sapiens, UniProt O95819)
[9] = target: 5'-AMP-activated protein kinase catalytic subunit alpha-1 (Homo sapiens, UniProt Q13131)
[10] = target: Cyclin-dependent kinase 8 (Homo sapiens, UniProt P49336); test: Navigating the Kinome. Panel member name: CDK8
[11] = target: Death-associated protein kinase 3 (Homo sapiens, UniProt O43293);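 also: measured as one member of a kinome-wide profiling panel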
[12] = target: Receptor-type tyrosine-protein kinase FLT3 (Homo sapiens, UniProt P36888);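 also: FLT3 was tested as one member of a kinome-wide kinase panel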
Receptor-type tyrosine-protein kinase FLT3, sequence (P36888 whole entry): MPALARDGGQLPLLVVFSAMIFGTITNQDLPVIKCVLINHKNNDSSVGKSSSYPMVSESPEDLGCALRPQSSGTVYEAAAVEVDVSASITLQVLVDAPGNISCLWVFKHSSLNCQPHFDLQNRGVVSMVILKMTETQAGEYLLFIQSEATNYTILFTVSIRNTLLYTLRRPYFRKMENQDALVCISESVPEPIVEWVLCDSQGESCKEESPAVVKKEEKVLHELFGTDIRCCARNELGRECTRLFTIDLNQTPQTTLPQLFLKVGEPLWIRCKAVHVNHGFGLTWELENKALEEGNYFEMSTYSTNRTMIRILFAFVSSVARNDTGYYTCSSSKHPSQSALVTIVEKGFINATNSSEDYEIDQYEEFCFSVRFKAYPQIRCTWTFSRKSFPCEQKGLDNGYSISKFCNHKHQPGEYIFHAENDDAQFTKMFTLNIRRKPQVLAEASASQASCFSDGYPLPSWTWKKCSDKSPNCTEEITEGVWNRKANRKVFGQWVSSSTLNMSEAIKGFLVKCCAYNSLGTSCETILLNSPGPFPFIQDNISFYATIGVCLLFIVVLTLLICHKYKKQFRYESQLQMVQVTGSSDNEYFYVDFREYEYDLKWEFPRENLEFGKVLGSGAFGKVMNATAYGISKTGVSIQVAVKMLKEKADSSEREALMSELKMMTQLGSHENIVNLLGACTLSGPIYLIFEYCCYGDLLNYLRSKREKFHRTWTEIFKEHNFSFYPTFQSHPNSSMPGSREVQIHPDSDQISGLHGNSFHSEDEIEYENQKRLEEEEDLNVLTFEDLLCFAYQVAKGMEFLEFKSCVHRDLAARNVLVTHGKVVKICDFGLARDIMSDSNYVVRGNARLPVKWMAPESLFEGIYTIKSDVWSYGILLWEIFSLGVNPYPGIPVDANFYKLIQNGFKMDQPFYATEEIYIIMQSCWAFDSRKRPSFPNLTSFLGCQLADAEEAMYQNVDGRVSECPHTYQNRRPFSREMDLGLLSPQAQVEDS

5'-AMP-activated protein kinase catalytic subunit alpha-1, sequence (Q13131 whole entry): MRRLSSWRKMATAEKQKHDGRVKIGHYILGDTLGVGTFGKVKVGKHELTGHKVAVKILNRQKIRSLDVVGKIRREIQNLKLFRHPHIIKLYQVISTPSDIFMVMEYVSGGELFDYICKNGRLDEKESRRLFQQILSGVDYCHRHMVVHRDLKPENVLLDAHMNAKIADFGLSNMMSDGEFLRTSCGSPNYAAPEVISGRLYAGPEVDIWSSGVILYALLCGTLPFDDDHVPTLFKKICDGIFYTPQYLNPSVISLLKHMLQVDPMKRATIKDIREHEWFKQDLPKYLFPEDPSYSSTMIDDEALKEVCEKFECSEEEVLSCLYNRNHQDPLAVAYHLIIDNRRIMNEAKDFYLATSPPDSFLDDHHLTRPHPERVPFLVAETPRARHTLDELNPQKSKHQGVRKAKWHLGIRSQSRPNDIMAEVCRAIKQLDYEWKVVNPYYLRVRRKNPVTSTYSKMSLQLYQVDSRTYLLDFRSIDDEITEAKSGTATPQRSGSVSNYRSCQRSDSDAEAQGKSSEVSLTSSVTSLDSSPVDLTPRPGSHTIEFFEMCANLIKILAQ
Cyclin-dependent kinase 8, sequence (P49336 whole entry): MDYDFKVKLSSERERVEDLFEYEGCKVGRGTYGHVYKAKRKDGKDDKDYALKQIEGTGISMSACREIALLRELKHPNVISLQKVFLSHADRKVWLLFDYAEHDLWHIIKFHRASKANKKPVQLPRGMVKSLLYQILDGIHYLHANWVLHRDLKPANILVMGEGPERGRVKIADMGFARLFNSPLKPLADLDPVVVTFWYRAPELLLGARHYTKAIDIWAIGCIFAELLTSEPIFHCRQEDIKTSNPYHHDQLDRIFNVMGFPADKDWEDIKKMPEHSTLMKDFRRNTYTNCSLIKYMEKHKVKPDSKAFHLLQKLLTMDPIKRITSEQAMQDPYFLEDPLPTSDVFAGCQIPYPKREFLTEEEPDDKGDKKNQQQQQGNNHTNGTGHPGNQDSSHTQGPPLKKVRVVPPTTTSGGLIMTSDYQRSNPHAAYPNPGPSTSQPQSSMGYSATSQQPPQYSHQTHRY
Mitogen-activated protein kinase kinase kinase kinase 4, sequence (O95819 whole entry): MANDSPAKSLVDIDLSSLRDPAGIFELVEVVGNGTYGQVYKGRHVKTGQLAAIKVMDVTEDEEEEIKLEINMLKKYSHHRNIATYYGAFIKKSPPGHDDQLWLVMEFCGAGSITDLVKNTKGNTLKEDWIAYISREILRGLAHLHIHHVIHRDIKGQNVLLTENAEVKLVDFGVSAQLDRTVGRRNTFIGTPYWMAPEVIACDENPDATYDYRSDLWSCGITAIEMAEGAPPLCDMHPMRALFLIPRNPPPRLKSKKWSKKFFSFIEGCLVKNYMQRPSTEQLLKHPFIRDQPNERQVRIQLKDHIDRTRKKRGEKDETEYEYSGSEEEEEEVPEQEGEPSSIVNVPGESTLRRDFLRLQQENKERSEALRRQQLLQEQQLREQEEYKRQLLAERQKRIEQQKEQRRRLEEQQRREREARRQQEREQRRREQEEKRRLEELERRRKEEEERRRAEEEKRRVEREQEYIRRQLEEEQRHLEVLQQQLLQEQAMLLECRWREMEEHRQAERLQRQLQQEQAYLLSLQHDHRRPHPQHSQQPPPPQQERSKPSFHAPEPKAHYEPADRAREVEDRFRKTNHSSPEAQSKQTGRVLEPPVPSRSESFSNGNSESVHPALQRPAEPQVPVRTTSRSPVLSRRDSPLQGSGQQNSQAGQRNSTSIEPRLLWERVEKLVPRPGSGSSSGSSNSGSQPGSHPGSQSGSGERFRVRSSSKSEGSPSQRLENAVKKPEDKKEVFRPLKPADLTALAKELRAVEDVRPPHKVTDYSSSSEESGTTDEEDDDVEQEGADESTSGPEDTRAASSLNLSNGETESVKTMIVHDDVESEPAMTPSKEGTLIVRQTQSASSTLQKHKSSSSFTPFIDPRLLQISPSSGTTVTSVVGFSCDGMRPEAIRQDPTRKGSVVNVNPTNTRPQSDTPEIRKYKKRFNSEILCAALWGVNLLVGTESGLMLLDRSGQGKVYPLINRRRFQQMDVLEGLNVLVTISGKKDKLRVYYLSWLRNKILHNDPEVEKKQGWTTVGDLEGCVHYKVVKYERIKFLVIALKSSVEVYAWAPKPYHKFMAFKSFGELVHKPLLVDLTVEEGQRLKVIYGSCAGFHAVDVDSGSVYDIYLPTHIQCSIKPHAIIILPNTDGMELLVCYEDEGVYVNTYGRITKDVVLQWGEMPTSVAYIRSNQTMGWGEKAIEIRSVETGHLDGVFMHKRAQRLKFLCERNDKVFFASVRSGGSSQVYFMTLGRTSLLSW
Tyrosine-protein kinase BTK, sequence (Q06187 whole entry): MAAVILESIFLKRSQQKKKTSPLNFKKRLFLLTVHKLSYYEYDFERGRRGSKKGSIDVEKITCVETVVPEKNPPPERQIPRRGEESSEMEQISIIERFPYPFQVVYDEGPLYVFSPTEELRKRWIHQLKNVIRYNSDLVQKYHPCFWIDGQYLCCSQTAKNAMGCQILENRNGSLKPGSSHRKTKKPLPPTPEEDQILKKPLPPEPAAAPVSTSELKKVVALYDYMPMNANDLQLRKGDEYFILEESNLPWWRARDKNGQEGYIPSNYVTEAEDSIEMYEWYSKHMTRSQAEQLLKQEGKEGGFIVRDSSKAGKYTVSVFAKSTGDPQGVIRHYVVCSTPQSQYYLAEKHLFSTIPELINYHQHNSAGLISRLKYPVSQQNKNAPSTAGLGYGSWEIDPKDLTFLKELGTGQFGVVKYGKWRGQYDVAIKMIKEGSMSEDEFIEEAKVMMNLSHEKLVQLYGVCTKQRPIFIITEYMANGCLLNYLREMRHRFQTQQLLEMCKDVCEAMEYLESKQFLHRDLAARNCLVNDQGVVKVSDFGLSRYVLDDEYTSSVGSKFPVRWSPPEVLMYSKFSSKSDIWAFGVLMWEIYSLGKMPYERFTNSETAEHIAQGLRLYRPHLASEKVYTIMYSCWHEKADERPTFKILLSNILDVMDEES
Mast/stem cell growth factor receptor Kit, sequence (P10721 whole entry): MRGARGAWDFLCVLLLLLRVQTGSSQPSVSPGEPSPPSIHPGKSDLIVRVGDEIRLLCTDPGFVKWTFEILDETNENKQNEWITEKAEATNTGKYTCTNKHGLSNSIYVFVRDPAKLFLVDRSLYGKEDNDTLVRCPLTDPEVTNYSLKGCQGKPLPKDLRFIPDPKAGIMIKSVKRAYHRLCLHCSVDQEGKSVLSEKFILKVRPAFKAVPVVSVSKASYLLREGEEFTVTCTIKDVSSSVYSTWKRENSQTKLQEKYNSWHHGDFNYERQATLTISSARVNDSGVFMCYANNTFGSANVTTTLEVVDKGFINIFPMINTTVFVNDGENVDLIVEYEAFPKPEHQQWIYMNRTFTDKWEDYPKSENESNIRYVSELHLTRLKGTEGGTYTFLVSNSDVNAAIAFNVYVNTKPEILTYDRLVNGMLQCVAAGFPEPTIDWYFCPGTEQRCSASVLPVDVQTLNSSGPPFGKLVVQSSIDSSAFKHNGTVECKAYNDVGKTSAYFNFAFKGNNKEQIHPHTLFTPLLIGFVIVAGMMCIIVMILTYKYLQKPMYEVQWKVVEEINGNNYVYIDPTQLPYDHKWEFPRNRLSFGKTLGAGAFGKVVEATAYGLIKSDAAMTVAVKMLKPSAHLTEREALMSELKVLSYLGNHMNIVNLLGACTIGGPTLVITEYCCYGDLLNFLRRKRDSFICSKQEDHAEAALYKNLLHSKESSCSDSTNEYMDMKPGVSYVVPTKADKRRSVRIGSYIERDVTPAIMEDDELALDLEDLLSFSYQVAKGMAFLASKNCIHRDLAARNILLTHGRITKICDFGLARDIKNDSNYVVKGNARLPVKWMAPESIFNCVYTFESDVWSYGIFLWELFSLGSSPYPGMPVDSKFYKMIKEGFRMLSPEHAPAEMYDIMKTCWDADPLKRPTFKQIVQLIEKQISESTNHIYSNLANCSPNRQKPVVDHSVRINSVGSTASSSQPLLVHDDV

| SMILES | AC50 [1] | Ki [2] | Ki [3] | Ki [4] | Ki [5] | Ki [6] | Ki [7] | Ki [8] | Ki [9] | Ki [10] | Ki [11] | Ki [12] |
| --- | --- | --- | --- | --- | --- | --- | --- | --- | --- | --- | --- | --- |
| CCCC(=O)NC(c1ccc(N(C)C)cc1)c1ccc2cccnc2c1O (configuration not stated) | 0.745 µM (active) |  |  |  |  |  |  |  |  |  |  |  |
| O=C1NC(=O)C(c2c[nH]c3ccccc23)=C1c1nc(N2CCNCC2)nc2ccccc12 |  | 3.98 µM (active) | 1.58 µM (active) | 0.398 µM (active) | 1.26 µM (active) | > 6.31 µM (inactive) | > 6.31 µM (inactive) | 0.2 µM (active) | 0.2 µM (active) | > 3.98 µM (inactive) | 0.631 µM (active) | > 3.16 µM (inactive) |
